Consider 31 compounds from US20220340875A1, “METHODS OF CULTURING AND/OR EXPANDING STEM CELLS AND/OR LINEAGE COMMITTED PROGENITOR CELLS USING AMIDO COMPOUNDS” (IDEAYA BIOSCIENCES, INC., priority 2018, published 2022).

Molecules are shown by their SMILES.

This assay has as its target T1, hAhR (Homo sapiens, UniProt P35869).
T1 construct: Stably integrated DRE-luciferase cell lines were generated by transducing the both cell lines with Cignal XRE luciferase reporter (Qiagen) lentiviral particles; endogenous in cells
T1 sequence (P35869 11-848): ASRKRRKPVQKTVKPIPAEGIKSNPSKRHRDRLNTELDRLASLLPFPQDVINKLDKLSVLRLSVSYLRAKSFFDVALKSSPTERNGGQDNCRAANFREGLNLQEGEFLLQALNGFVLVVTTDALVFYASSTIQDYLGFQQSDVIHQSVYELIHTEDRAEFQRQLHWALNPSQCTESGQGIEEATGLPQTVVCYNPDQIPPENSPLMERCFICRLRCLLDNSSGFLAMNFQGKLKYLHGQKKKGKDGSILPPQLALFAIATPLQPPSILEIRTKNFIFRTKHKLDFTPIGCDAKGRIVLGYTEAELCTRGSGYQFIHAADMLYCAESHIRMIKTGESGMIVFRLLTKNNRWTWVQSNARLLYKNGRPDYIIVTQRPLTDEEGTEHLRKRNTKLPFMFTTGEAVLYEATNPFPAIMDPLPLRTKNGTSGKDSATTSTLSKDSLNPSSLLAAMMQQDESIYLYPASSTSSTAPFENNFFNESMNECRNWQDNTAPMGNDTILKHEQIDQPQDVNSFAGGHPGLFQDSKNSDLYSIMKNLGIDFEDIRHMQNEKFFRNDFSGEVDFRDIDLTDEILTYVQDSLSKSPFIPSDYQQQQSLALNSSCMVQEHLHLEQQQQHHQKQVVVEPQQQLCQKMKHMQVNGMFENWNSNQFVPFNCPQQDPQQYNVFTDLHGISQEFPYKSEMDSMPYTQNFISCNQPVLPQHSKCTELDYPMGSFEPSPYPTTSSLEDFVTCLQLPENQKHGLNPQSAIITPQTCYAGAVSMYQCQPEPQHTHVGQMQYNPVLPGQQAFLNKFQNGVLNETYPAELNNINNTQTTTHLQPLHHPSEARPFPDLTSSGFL
Description: AhR DRE-luciferase reporter transcriptional assay, antagonist mode (TCDD-induced). It is filed as cell-based. The settings on record: HEPG2 DRE-Luc cells, 3 nM TCDD, 24 hour incubation, relative IC50. Put shortly:
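HepG2 cells carrying a stably integrated DRE-luciferase reporter, in OptiMEM with 0.5% FBS; semi-log compound doses added with 3 nM TCDD, 24 h incubation, firefly luciferase read-out. Percent maximal activity normalised between vehicle ± TCDD; relative IC50 taken as half-reduction between curve plateaus.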

In the case of `COc1cnccc1C(=O)Nc1ccc(-c2ncc3cc(C(F)(F)F)ccc3n2)cc1C` [Example 144, 3-methoxy-N-(2-methyl-4-(6-(trifluoromethyl)quinazolin-2-yl)phenyl)isonicotinamide], the IC50 was < 0.2 µM.
On to `COc1cnccc1C(=O)N(C)c1ccc(-c2ncc3cc(C(F)(F)F)ccc3n2)cc1C` [Example 145, 3-Methoxy-N-methyl-N-(2-methyl-4-(6-(trifluoromethyl)quinazolin-2-yl)phenyl)isonicotinamide], for which the IC50 was < 0.2 µM.
To `Cc1cc(-c2ccc3cncc(Cl)c3n2)ccc1NC(=O)c1ccnn1C` [Example 104, N-(4-(8-chloro-1,6-naphthyridin-2-yl)-2-methylphenyl)-1-methyl-1H-pyrazole-5-carboxamide] belongs < 0.2 µM; to `Cc1cc(-c2ccc3cc(F)ccc3n2)ccc1NC(=O)c1ccccn1` [Example 026, N-(4-(6-fluoroquinolin-2-yl)-2-methylphenyl)picolinamide], 0.5 to 1 µM; to `Cc1cc(-c2ccc3ccn(C)c3c2)ccc1NC(=O)c1ccnn1C` [Example 082, 1-Methyl-N-(2-methyl-4-(1-methyl-1H-indol-6-yl)phenyl)-1H-pyrazole-5-carboxamide], 0.5 to 1 µM.
Next, `Cc1cc(-c2ccc3cc(F)ccc3n2)ccc1NC(=O)c1ccccc1` [Example 023, N-(4-(6-fluoroquinolin-2-yl)-2-methylphenyl)benzamide]: 0.5 to 1 µM; `Cc1cc(-c2ccc3cc(F)ccc3n2)ccc1NC(=O)c1cccnn1` [Example 031, N-(4-(6-fluoroquinolin-2-yl)-2-methylphenyl)pyridazine-3-carboxamide]: 0.5 to 1 µM.
To `Cc1cc(-c2ccc3cc(F)ccc3n2)ccc1NC(=O)c1cnccn1` [Example 032, N-(4-(6-fluoroquinolin-2-yl)-2-methylphenyl)pyrazine-2-carboxamide] belongs 0.5 to 1 µM.
Turning to `Cc1cc(-c2ncc3cc(C(F)(F)F)ccc3n2)ccc1NC(=O)c1ccnn1C` [Example 112, 1-methyl-N-(2-methyl-4-(6-(trifluoromethyl)quinazolin-2-yl)phenyl)-1H-pyrazole-5-carboxamide], the IC50 is < 0.2 µM.
With `Cc1cc(-c2ncc3cc(C(F)(F)F)cc(C)c3n2)ccc1N(C)C(=O)c1ccnn1C` [Example 111, N,1-dimethyl-N-(2-methyl-4-(8-methyl-6-(trifluoromethyl)quinazolin-2-yl)phenyl)-1H-pyrazole-5-carboxamide], the half-inhibitory concentration (IC50) was < 0.2 µM.
The compound `Cc1cc(-c2ncc3cc(C(F)(F)F)ccc3n2)ccc1N(C)C(=O)c1ccnn1Cc1nnn[nH]1` [Example 158, 1-((1H-tetrazol-5-yl)methyl)-N-methyl-N-(2-methyl-4-(6-(trifluoromethyl)-quinazolin-2-yl)phenyl)-1H-pyrazole-5-carboxamide] returned an IC50 of 1 to 10 µM.
The compound `Cc1cc(-c2ccc3cc(F)cc(C(F)(F)F)c3n2)ccc1NC(=O)c1ccnn1C` [Example 058, N-(4-(6-fluoro-8-(trifluoromethyl)quinolin-2-yl)-2-methylphenyl)-1-methyl-1H-pyrazole-5-carboxamide] came in with an IC50 of 0.2 to 0.5 µM.
Compound `Cc1cc(C(F)(F)F)nc2cnc(-c3ccc(NC(=O)C4CCOCC4)c(F)c3)nc12` [Example 186, N-(2-fluoro-4-(8-methyl-6-(trifluoromethyl)pyrido[3,2-d]pyrimidin-2-yl)phenyl)tetrahydro-2H-pyran-4-carboxamide] gave an IC50 of 1 to 10 µM.
Consider `Cc1cc(-c2ncc3cc(C(F)(F)F)ccc3n2)ccc1NC(=O)c1c(C)cnn1C` [Example 215, 1,4-dimethyl-N-(2-methyl-4-(6-(trifluoromethyl)quinazolin-2-yl)phenyl)-1H-pyrazole-5-carboxamide], for which the IC50 is < 0.2 µM.
To `Cc1cc(-c2ccc3nc(C(F)(F)F)cc(C)c3n2)ccc1N(C)C(=O)c1ccnn1C` [Example 106, N,1-dimethyl-N-(2-methyl-4-(8-methyl-6-(trifluoromethyl)-1,5-naphthyridin-2-yl)phenyl)-1H-pyrazole-5-carboxamide] belongs < 0.2 µM.
To `Cc1nc(NC(=O)c2ccnn2C)ccc1-c1ccc2cc(F)ccc2n1` [Example 044, N-(5-(6-fluoroquinolin-2-yl)-6-methylpyridin-2-yl)-1-methyl-1H-pyrazole-5-carboxamide] belongs 1 to 10 µM; to `Cc1cc(-c2ccc3cnccc3c2)ccc1NC(=O)c1ccnn1C` [Example 021, N-(4-(Isoquinolin-6-yl)-2-methylphenyl)-1-methyl-1H-pyrazole-5-carboxamide], 0.5 to 1 µM.
Turning to `Cc1cc(-c2ccc3cc(C4CC4)ccc3n2)ccc1N(C)C(=O)c1ccnn1C` [Example 069, N-(4-(6-cyclopropylquinolin-2-yl)-2-methylphenyl)-N,1-dimethyl-1H-pyrazole-5-carboxamide], the IC50 lay within 1 to 10 µM.
Next, `CN(C(=O)c1ccnn1C)c1ccc(-c2ncc3cc(C(F)(F)F)ccc3n2)cc1` [Example 218, N,1-dimethyl-N-(4-(6-(trifluoromethyl)quinazolin-2-yl)phenyl)-1H-pyrazole-5-carboxamide]: < 0.2 µM; `Cc1cc(-c2nc3cc(F)ccc3s2)ccc1NC(=O)c1ccnn1C` [Example 099, N-(4-(5-fluorobenzo[d]thiazol-2-yl)-2-methylphenyl)-1-methyl-1H-pyrazole-5-carboxamide]: < 0.2 µM; `Cc1cc(-c2ccc3cc(N4CCOCC4)ccc3n2)ccc1NC(=O)c1ccnn1C` [Example 071, 1-methyl-N-(2-methyl-4-(6-morpholinoquinolin-2-yl)phenyl)-1H-pyrazole-5-carboxamide]: 0.2 to 0.5 µM.
To `Cc1cc(-c2ccc3cc(Cl)ccc3n2)ccc1NC(=O)c1ccnn1C` [Example 065, N-(4-(6-Chloroquinolin-2-yl)-2-methylphenyl)-1-methyl-1H-pyrazole-5-carboxamide] belongs 0.2 to 0.5 µM; to `Cc1cc(-c2ncc3nc(C(F)(F)F)cc(C)c3n2)ccc1N(C)C(=O)c1ccnn1CCO` [Example 173, 1-(2-hydroxyethyl)-N-methyl-N-(2-methyl-4-(8-methyl-6-(trifluoromethyl)-pyrido[3,2-d]pyrimidin-2-yl)phenyl)-1H-pyrazole-5-carboxamide], < 0.2 µM.
`Cc1cc(-c2ccc3cc(C(F)(F)F)ccc3n2)ccc1NC(=O)c1ccnn1C` [Example 001, 1-methyl-N-(2-methyl-4-(6-(trifluoromethyl)quinolin-2-yl)phenyl)-1H-pyrazole-5-carboxamide]: the IC50 was 0.2 to 0.5 µM.
`Cc1cc(-c2cc(C)c3ccccc3n2)ccc1NC(=O)OC(C)(C)C` [Example 015, tert-butyl (2-methyl-4-(4-methylquinolin-2-yl)phenyl)carbamate] showed an IC50 of 1 to 10 µM.
To `Cc1cc(-c2ccc3c(C(F)(F)F)cn(C)c3c2)ccc1N(C)C(=O)c1ccnn1C` [Example 087, N,1-dimethyl-N-(2-methyl-4-(1-methyl-3-(trifluoromethyl)-1H-indol-6-yl)phenyl)-1H-pyrazole-5-carboxamide] belongs 1 to 10 µM; to `Cc1cc(-c2ncc3cc(C(F)(F)F)ccc3n2)ccc1N(C)C(=O)c1ccnn1CCN1CCOCC1` [Example 157, N-methyl-N-(2-methyl-4-(6-(trifluoromethyl)quinazolin-2-yl)phenyl)-1-(2-morpholinoethyl)-1H-pyrazole-5-carboxamide], < 0.2 µM; to `Cc1cc(-c2ncc3cc(C(F)(F)F)ccc3n2)ccc1N(C)C(=O)c1nnn[nH]1` [Example 133, N-methyl-N-(2-methyl-4-(6-(trifluoromethyl)quinazolin-2-yl)phenyl)-1H-tetrazole-5-carboxamide], 1 to 10 µM.
To `Cn1nccc1C(=O)Nc1ccc(-c2ncc3nc(C(F)(F)F)ccc3n2)cc1F` [Example 137, N-(2-fluoro-4-(6-(trifluoromethyl)pyrido[3,2-d]pyrimidin-2-yl)phenyl)-1-methyl-1H-pyrazole-5-carboxamide] belongs < 0.2 µM.
Next, `Cc1cc(C(F)(F)F)nc2cnc(-c3ccc(N(C)C(=O)c4ccnn4C)c(F)c3)nc12` [Example 162, N-(2-fluoro-4-(8-methyl-6-(trifluoromethyl)pyrido[3,2-d]pyrimidin-2-yl)-phenyl)-N,1-dimethyl-1H-pyrazole-5-carboxamide]: < 0.2 µM; `Cc1cc(-c2ncc3nc(C(F)(F)F)cc(C)c3n2)ccc1NC(=O)c1ccnn1C` [Example 147, 1-methyl-N-(2-methyl-4-(8-methyl-6-(trifluoromethyl)pyrido[3,2-d]pyrimidin-2-yl)phenyl)-1H-pyrazole-5-carboxamide]: < 0.2 µM.
